# Data taken from ChEMBL document CHEMBL3885881, “DrugMatrix”.
# Organism: Rattus norvegicus
# Experiment: DrugMatrix - Regimen: Daily Repeat
# Assay type: toxicity, organism-based, Sprague-Dawley
# Set-up: regimen Daily Repeat, gender Male, age 6-8 weeks
# Details: in vivo, po, route oral GAVAGE, vehicle 100 % WATER; for ABSOLUTE BASOPHIL / ABSOLUTE EOSINOPHIL / ABSOLUTE LYMPHOCYTE / ABSOLUTE MONOCYTE / ABSOLUTE SEGMENTED NEUTROPHIL / BASOPHIL / EOSINOPHIL / ERYTHROCYTE COUNT / HEMATOCRIT / HEMOGLOBIN / LEUKOCYTE COUNT / LYMPHOCYTE / MEAN CORPUSCULAR HEMOGLOBIN / MEAN CORPUSCULAR HEMOGLOBIN CONCENTRATION / MEAN CORPUSCULAR VOLUME / MONOCYTE / NEUTROPHIL / NUCLEATED RED BLOOD CELLS / PLATELET COUNT: tissue Blood; for ALANINE AMINOTRANSFERASE / ALBUMIN / ALKALINE PHOSPHATASE / ASPARTATE AMINOTRANSFERASE / BLOOD UREA NITROGEN / CARBON DIOXIDE / CHLORIDE / CHOLESTEROL / CREATINE PHOSPHOKINASE / CREATININE / GLUCOSE / LACTATE DEHYDROGENASE / LIPASE / PHOSPHORUS / POTASSIUM / SODIUM / TOTAL BILIRUBIN / TOTAL PROTEIN / URIC ACID: tissue Plasma
# [1] = 120 mg/kg, 120 h, dose level Low, time 5 day
# [2] = 1695 mg/kg, 72 h, dose level High, time 3 day
# [3] = 1695 mg/kg, 120 h, dose level High, time 5 day
structure (smiles),measurement,setting,value
Nc1ccc(S(=O)(=O)Nc2ccnn2-c2ccccc2)cc1 [SULFAPHENAZOLE],ABSOLUTE BASOPHIL,[1],0 CELLS/uL
same,ABSOLUTE EOSINOPHIL,[1],0 CELLS/uL
same,ABSOLUTE LYMPHOCYTE,[1],12168 CELLS/uL
same,ABSOLUTE MONOCYTE,[1],171.33 CELLS/uL
same,ABSOLUTE SEGMENTED NEUTROPHIL,[1],1260.67 CELLS/uL
same,BASOPHIL,[1],0%
same,EOSINOPHIL,[1],0%
same,ERYTHROCYTE COUNT,[1],5.32 x10E6/uL
same,HEMATOCRIT,[1],32.93%
same,HEMOGLOBIN,[1],13.2 G/DL
same,LEUKOCYTE COUNT,[1],13.6 x10E3/uL
same,LYMPHOCYTE,[1],88.67%
same,MEAN CORPUSCULAR HEMOGLOBIN,[1],24.8 pg
same,MEAN CORPUSCULAR HEMOGLOBIN CONCENTRATION,[1],40.07 G/DL
same,MEAN CORPUSCULAR VOLUME,[1],61.87 fL
same,MONOCYTE,[1],1.33%
same,NEUTROPHIL,[1],10%
same,NUCLEATED RED BLOOD CELLS,[1],0 /100WBC
same,PLATELET COUNT,[1],1135.33 x10E3/uL
same,ALANINE AMINOTRANSFERASE,[1],44 u/L
same,ALBUMIN,[1],4.37 G/DL
same,ALKALINE PHOSPHATASE,[1],314.33 u/L
same,ASPARTATE AMINOTRANSFERASE,[1],85.33 u/L
same,BLOOD UREA NITROGEN,[1],17.67 mg/dL
same,CARBON DIOXIDE,[1],25 mmol/L
same,CHLORIDE,[1],101.67 MEQ/L
same,CHOLESTEROL,[1],55.33 mg/dL
same,CREATINE PHOSPHOKINASE,[1],560.67 u/L
same,CREATININE,[1],0.19 mg/dL
same,GLUCOSE,[1],147.33 mg/dL
same,LACTATE DEHYDROGENASE,[1],243.67 u/L
same,LIPASE,[1],10.67 u/L
same,PHOSPHORUS,[1],11.43 mg/dL
same,POTASSIUM,[1],6.3 MEQ/L
same,SODIUM,[1],141.23 MEQ/L
same,TOTAL BILIRUBIN,[1],0.17 mg/dL
same,TOTAL PROTEIN,[1],5.93 G/DL
same,URIC ACID,[1],1.83 mg/dL
same,ABSOLUTE BASOPHIL,[2],0 CELLS/uL
same,ABSOLUTE EOSINOPHIL,[2],148.67 CELLS/uL
same,ABSOLUTE LYMPHOCYTE,[2],12946.33 CELLS/uL
same,ABSOLUTE MONOCYTE,[2],179 CELLS/uL
same,ABSOLUTE SEGMENTED NEUTROPHIL,[2],1226 CELLS/uL
same,BASOPHIL,[2],0%
same,EOSINOPHIL,[2],1%
same,ERYTHROCYTE COUNT,[2],6.24 x10E6/uL
same,HEMATOCRIT,[2],37.43%
same,HEMOGLOBIN,[2],14.4 G/DL
same,LEUKOCYTE COUNT,[2],14.5 x10E3/uL
same,LYMPHOCYTE,[2],89.33%
same,MEAN CORPUSCULAR HEMOGLOBIN,[2],23.1 pg
same,MEAN CORPUSCULAR HEMOGLOBIN CONCENTRATION,[2],38.5 G/DL
same,MEAN CORPUSCULAR VOLUME,[2],60.03 fL
same,MONOCYTE,[2],1.33%
same,NEUTROPHIL,[2],8.33%
same,NUCLEATED RED BLOOD CELLS,[2],0.33 /100WBC
same,PLATELET COUNT,[2],1221 x10E3/uL
same,ALANINE AMINOTRANSFERASE,[2],93.67 u/L
same,ALBUMIN,[2],4.27 G/DL
same,ALKALINE PHOSPHATASE,[2],470.33 u/L
same,ASPARTATE AMINOTRANSFERASE,[2],97.33 u/L
same,BLOOD UREA NITROGEN,[2],20 mg/dL
same,CARBON DIOXIDE,[2],28.67 mmol/L
same,CHLORIDE,[2],98 MEQ/L
same,CHOLESTEROL,[2],66 mg/dL
same,CREATINE PHOSPHOKINASE,[2],349 u/L
same,CREATININE,[2],0.24 mg/dL
same,GLUCOSE,[2],138 mg/dL
same,LACTATE DEHYDROGENASE,[2],231 u/L
same,LIPASE,[2],12 u/L
same,PHOSPHORUS,[2],11.17 mg/dL
same,POTASSIUM,[2],6.38 MEQ/L
same,SODIUM,[2],138.87 MEQ/L
same,TOTAL BILIRUBIN,[2],0.17 mg/dL
same,TOTAL PROTEIN,[2],5.9 G/DL
same,URIC ACID,[2],1.43 mg/dL
same,ABSOLUTE BASOPHIL,[3],0 CELLS/uL
same,ABSOLUTE EOSINOPHIL,[3],0 CELLS/uL
same,ABSOLUTE LYMPHOCYTE,[3],12966.33 CELLS/uL
same,ABSOLUTE MONOCYTE,[3],311 CELLS/uL
same,ABSOLUTE SEGMENTED NEUTROPHIL,[3],1656 CELLS/uL
same,BASOPHIL,[3],0%
same,EOSINOPHIL,[3],0%
same,ERYTHROCYTE COUNT,[3],5.99 x10E6/uL
same,HEMATOCRIT,[3],35.5%
same,HEMOGLOBIN,[3],13.53 G/DL
same,LEUKOCYTE COUNT,[3],14.93 x10E3/uL
same,LYMPHOCYTE,[3],86.67%
same,MEAN CORPUSCULAR HEMOGLOBIN,[3],22.57 pg
same,MEAN CORPUSCULAR HEMOGLOBIN CONCENTRATION,[3],38.1 G/DL
same,MEAN CORPUSCULAR VOLUME,[3],59.27 fL
same,MONOCYTE,[3],2%
same,NEUTROPHIL,[3],11.33%
same,NUCLEATED RED BLOOD CELLS,[3],0 /100WBC
same,PLATELET COUNT,[3],1318 x10E3/uL
same,ALANINE AMINOTRANSFERASE,[3],117.33 u/L
same,ALBUMIN,[3],4.47 G/DL
same,ALKALINE PHOSPHATASE,[3],435.33 u/L
same,ASPARTATE AMINOTRANSFERASE,[3],99.67 u/L
same,BLOOD UREA NITROGEN,[3],16.33 mg/dL
same,CARBON DIOXIDE,[3],25 mmol/L
same,CHLORIDE,[3],99 MEQ/L
same,CHOLESTEROL,[3],48 mg/dL
same,CREATINE PHOSPHOKINASE,[3],444.33 u/L
same,CREATININE,[3],0.22 mg/dL
same,GLUCOSE,[3],150.33 mg/dL
same,LACTATE DEHYDROGENASE,[3],121.33 u/L
same,LIPASE,[3],12 u/L
same,PHOSPHORUS,[3],11.27 mg/dL
same,POTASSIUM,[3],5.55 MEQ/L
same,SODIUM,[3],141.73 MEQ/L
same,TOTAL BILIRUBIN,[3],0.23 mg/dL
same,TOTAL PROTEIN,[3],5.87 G/DL
same,URIC ACID,[3],1.37 mg/dL
